Patent publication US20230348362A1, “LIPID COMPOUNDS AND LIPID NANOPARTICLE COMPOSITIONS” (Suzhou Abogen Biosciences Co., Ltd., priority 2021, published 2023)

Key:
[1] = Lipid nanoparticle size and polydispersity by dynamic light scattering; format: physicochemical; conditions: LNP of lipid/DSPC/cholesterol/PEG-lipid 50:10:38.5:1.5 encapsulating hEPO mRNA
Method: (§1) Briefly, a cationic lipid provided herein, DSPC, cholesterol, and PEG-lipid were solubilized in ethanol at a molar ratio of 50:10:38.5:1.5, and mRNA were diluted in 10 to 50 mM citrate buffer, pH=4. The LNPs were prepared at a total lipid to mRNA weight ratio of approximately 10:1 to 30:1 by mixing the ethanolic lipid solution with the aqueous mRNA solution at a volume ratio of 1:3 using a microfluidic apparatus, total flow rate ranging from 9-30 mL/min. Ethanol were thereby removed and replaced by DPBS using dialysis. Finally, the lipid nanoparticles were filtered through a […] sterile filter.
(§2) Lipid nanoparticle size were determined by dynamic light scattering using a Malvern Zetasizer Nano ZS (Malvern UK) using a […] backscatter detection mode. The encapsulation efficiency of lipid nanoparticles were determined using a Quant-it Ribogreen RNA quantification assay kit (Thermo Fisher Scientific, UK) according to the manufacturer's instructions.

[2] = Encapsulation efficiency of lipid nanoparticles, Quant-it Ribogreen RNA assay; format: physicochemical; conditions: LNP of lipid/DSPC/cholesterol/PEG-lipid 50:10:38.5:1.5 encapsulating hEPO mRNA
Method: as §1, §2

Compound	polydispersity [1]	size (nm) [1] [nm]	Encapsulation Efficiency [2] [%]
CCCCCCCCCCCCC(O)CN(CCCCCC(=O)OCC(CCCCCC)CCCCCCCC)CCN(CCCCCC(=O)OCCCCCCCCCCC)C1CCC1 (stereo not drawn) [Compound 2]	0.066	64.03	86.6
CCCCCCCCCCCOC(=O)CCCCCN(CCN(CCO)CCCCCC(=O)OCC(CCCCCC)CCCCCCCC)C1CCCCC1 (stereo not drawn) [Compound 6]	0.089	101.6	87.7
CCCCCCCCC(CCCCCC)COC(=O)CCCCCN(CCO)CCN(CCCCCC(=O)OCC(CCCCCC)CCCCCCCC)C1CC1 (stereo not drawn) [Compound 9]	0.181	55.12	93.9
CCCCCCCCC(CCCCCCCC)CNC(=O)CCCCCN(CCO)CCN(CCCCCC(=O)NCC(CCCCCCCC)CCCCCCCC)C1CCC1 [Compound 11]	0.055	66.15	82.8
CCCCCCCCC(CCCCCCCC)CNC(=O)CCCCCN(CCO)CCN(CCCCCC(=O)NCC(CCCCCCCC)CCCCCCCC)C1CCCCCC1 [Compound 14]	0.118	60.06	89.8
CCCCCCCCCCCCCCOCC(CN(CCN(CCO)CCCCCC(=O)OCC(CCCCCCCC)CCCCCCCC)C1CCC1)OCCCCCCCC (stereo not drawn) [Compound 20]	0.015	74.98	95.8
CCCCCCCCCCCOC(=O)CCCCCN(CCN(CCO)CCCCCC(=O)OCC(CCCCCCC)CCCCCCC)C1CCCCC1 [Compound 22]	0.047	87.7	95.5
CCCCCCCCC(CCCCCCCC)CC(=O)NCCCCCN(CCN(CCO)CCCCCOC(=O)CC(CCCCCCCC)CCCCCCCC)C1CCCCCCC1 [Compound 75]	0.037	76.62	92.59
CCCCCCCCCCCOC(=O)CCCCCN(CCN(CCO)CCCCCC(=O)N(CCCCCCCC)CCCCCCCC)C1CCCCC1 [Compound 90]	0.030	101.70	82.56
CCCCCCCCCCCC(=O)OCCCCCN(CCN(CCO)CCOCCOC(=O)CC(CCCCCCCC)CCCCCCCC)C1CCCCC1 [Compound 98]	0.042	91.85	89.31
CCCCCCCCCCCOC(=O)CCCCCN(CCN(CCO)CCCCCNP(=O)(OCCCCCCCCC)OCCCCCCCCC)C1CCCCC1 [Compound 100]	0.085	93.16	85.49
CCCCCCCCCCCCCCCCOC(=O)CCCCCN(CCN(CCO)CCCCCC(=O)OCC(CCCCCCCC)CCCCCCCC)C1CCCCC1 [Compound 104]	0.044	66.62	92.43
CCCCC/C=C\C/C=C\CCCCCCCC(=O)OCCCCCN(CCN(CCO)CCCCCC(=O)OCC(CCCCCCCC)CCCCCCCC)C1CCCCC1 [Compound 108]	0.068	67.69	91.83
CCCCCCCCCCCOC(=O)CCCCCN(CCN(CCO)CCOCCC(=O)OCC(CCCCCCCC)CCCCCCCC)C1CCC1 [Compound 114]	0.044	81.25	90.35
CCCCCCCCCCCOC(=O)CCOCCN(CCN(CCO)CCOCCC(=O)OCC(CCCCCCCC)CCCCCCCC)C1CCCCC1 [Compound 117]	0.050	79.67	89.34
CCCCCCCCCCCOC(=O)CCCCCN(CC=C(C)C)CCN(CCO)CCCCCC(=O)OCC(CCCCCCCC)CCCCCCCC [Compound 119]	0.087	69.75	92.21
CCCCCCCCCCCOC(=O)CCCCCN(CC=C(C)C)CCN(CCCCCC(=O)OCC(CCCCCCCC)CCCCCCCC)C1CCC(O)CC1 (stereo not drawn) [Compound 125]	0.035	90.98	92.89
CCCCCCCCCCCOC(=O)CCCCCN(CCN(CCO)CCCCCC(=O)OCC(CCCCCCCC)CCCCCCCC)C1CC1 [Compound 129]	0.069	58.08	90.52
CCCCCCCCC(CCCCCC)COC(=O)CCCCCN(CCO)CCN(CCCCC(COC(=O)CCCCCCC)COC(=O)CCCCCCC)C1CCC1 (stereo not drawn) [Compound 135]	0.035	124.60	87.16
CCCCCCCCC(CCCCCC)COC(=O)CCCCCN(CCO)CCN(CCCCC(COC(=O)CCCCCCC)COC(=O)CCCCCCC)C1CCCCC1 (stereo not drawn) [Compound 139]	0.076	59.97	87.81
CCCCCCCCC(CCCCCC)CNC(=O)CCCCCN(CCO)CCN(CCCCC(COC(=O)CCCCCCC)COC(=O)CCCCCCC)C1CCCCCCC1 (stereo not drawn) [Compound 145]	0.047	68.91	88.63
CCCCCCCCC(CCCCCC)CNC(=O)CCCCCN(CC)CCN(CCO)CCCCC(COC(=O)CCCCCCC)COC(=O)CCCCCCC (stereo not drawn) [Compound 159]	0.080	77.72	90.71
CCCCCCCC(=O)OCC(CCCCN(CCO)CCN(CCCCC(COC(=O)CCCCCCC)COC(=O)CCCCCCC)C1CCCCCC1)COC(=O)CCCCCCC [Compound 160]	0.096	86.16	86.18
CCCCCCCC(=O)OCC(CCCCN(CC=C(C)C)CCN(CCO)CCCCC(COC(=O)CCCCCCC)COC(=O)CCCCCCC)COC(=O)CCCCCCC [Compound 162]	0.068	82.68	85.46
CCCCCCCCCC(=O)OCC(CCCCN(CCO)CCN(CCCCC(COC(=O)CCCCCCCCC)COC(=O)CCCCCCCCC)C1CCC1)COC(=O)CCCCCCCCC [Compound 167]	0.128	69.47	91.97

Now from value to molecule:

polydispersity [1]	size (nm) [1] [nm]	Encapsulation Efficiency [2] [%]	Compound
0.081	77.48	92.6	CCCCCCCCCCCOC(=O)CCCCCN(CCN(CCO)CCCCCC(=O)NCC(CCCCCCCC)CCCCCCCC)C1CCCCC1 [Compound 44]
0.063	70.3	95.1	CCCCCCCCCCCC(=O)OCCCCCN(CCN(CCO)CCCCCNC(=O)CC(CCCCCCCC)CCCCCCCC)C1CCCCC1 [Compound 59]
0.096	60.99	88.86	CCCCCCCCC(CCCCCC)C(=O)OCCCCCCN(CCO)CCN(CCCCCCOC(=O)C(CCCCCC)CCCCCCCC)C1CCC1 (stereo not drawn) [Compound 69]
0.080	71.00	92.56	CCCCCCCCC(CCCCCCCC)COC(=O)CCCCCN(CCO)Cc1ccc(CN(CCCCCC(=O)OCC(CCCCCCCC)CCCCCCCC)C2CCC2)cc1 [Compound 88]
0.064	76.12	92.84	CCCCCCCCCCCC(=O)OCCCCCN(CCN(CCO)CCCCCOC(=O)CC(CCCCCCCC)CCCCCCCC)C1CCCC1 [Compound 93]
0.067	67.63	92.14	CCCCCCCCCCCOC(=O)CCCCCN(CCN(CCO)CCCCCC(=O)OCC(CCCCCCCC)CCCCCCCC)C1CCC1 [Compound 106]
0.058	97.51	90.22	CCCCCCCCCCCOC(=O)CCCCCN(CCN(CCO)CCOCCC(=O)OCC(CCCCCCCC)CCCCCCCC)C1CCCCC1 [Compound 115]
0.060	76.86	91.06	CCCCCCCCCCCOC(=O)CCCCCN(CCN(CCO)CCCCCC(=O)OCC(CCCCCCCC)CCCCCCCC)C1CCCC1 [Compound 130]
0.107	81.24	90.03	CCCCCCCCC(CCCCCC)CNC(=O)CCCCCN(CCO)CCN(CCCCC(COC(=O)CCCCCCC)COC(=O)CCCCCCC)C1CCCC1 (stereo not drawn) [Compound 138]
0.051	71.01	89.74	CCCCCCCCC(CCCCCC)CNC(=O)CCCCCN(CCO)CCN(CCCCC(COC(=O)CCCCCCC)COC(=O)CCCCCCC)C1CCCCC1 (stereo not drawn) [Compound 140]
0.081	64.31	90.40	CCCCCCCCC(CCCCCC)COC(=O)CCCCCN(CC=C(C)C)CCN(CCO)CCCCC(COC(=O)CCCCCCC)COC(=O)CCCCCCC (stereo not drawn) [Compound 148]
0.043	78.75	92.71	CCCCCCCCC(CCCCCC)CNC(=O)CCCCCN(CC=C(C)C)CCN(CCO)CCCCC(COC(=O)CCCCCCC)COC(=O)CCCCCCC (stereo not drawn) [Compound 149]
0.190	73.36	89.69	CCCCCCCCC(CCCCCC)COC(=O)CCCCCN(C)CCN(CCO)CCCCC(COC(=O)CCCCCCC)COC(=O)CCCCCCC (stereo not drawn) [Compound 156]
0.058	63.54	89.17	CCCCCCCCC(CCCCCC)CNC(=O)CCCCCN(C)CCN(CCO)CCCCC(COC(=O)CCCCCCC)COC(=O)CCCCCCC (stereo not drawn) [Compound 158]
